Assay results taken from PubChem BioAssay (NCI).
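In this assay, cells in 96-well plates receive the compound at five concentrations for 48 hours. Endpoints are linearly interpolated between the surrounding concentrations. GI50: concentration for 50% inhibition of growth. TGI denotes the concentration required for complete inhibition of growth.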

Key:
Assay in all cases: NCI-60 cell line screen, 48 h
MDA-MB-231 breast = test system: MDA-MB-231 breast
SK-MEL-28 melanoma = test system: SK-MEL-28 melanoma
SF-539 CNS = test system: SF-539 CNS
SNB-19 CNS = test system: SNB-19 CNS
A498 renal = test system: A498 renal
SN12C renal = test system: SN12C renal
786-0 renal = test system: 786-0 renal
OVCAR-4 ovarian = test system: OVCAR-4 ovarian
MCF7 breast = test system: MCF7 breast
KM12 colon = test system: KM12 colon
OVCAR-8 ovarian = test system: OVCAR-8 ovarian
NCI-H226 lung = test system: NCI-H226 lung
NCI-H23 lung = test system: NCI-H23 lung
NCI-H460 lung = test system: NCI-H460 lung
SK-OV-3 ovarian = test system: SK-OV-3 ovarian
IGROV1 ovarian = test system: IGROV1 ovarian
NCI/ADR-RES ovarian = test system: NCI/ADR-RES ovarian
SK-MEL-2 melanoma = test system: SK-MEL-2 melanoma
HT29 colon = test system: HT29 colon
EKVX NSCLC = test system: EKVX NSCLC
M14 melanoma = test system: M14 melanoma
UO-31 renal = test system: UO-31 renal
TK-10 renal = test system: TK-10 renal
RXF 393 renal = test system: RXF 393 renal
UACC-257 melanoma = test system: UACC-257 melanoma
OVCAR-5 ovarian = test system: OVCAR-5 ovarian
SNB-75 CNS = test system: SNB-75 CNS
NCI-H522 lung = test system: NCI-H522 lung
T-47D breast = test system: T-47D breast
HS 578T breast = test system: HS 578T breast
PC-3 prostate = test system: PC-3 prostate
MALME-3M melanoma = test system: MALME-3M melanoma
HOP-92 NSCLC = test system: HOP-92 NSCLC
A549 NSCLC = test system: A549 NSCLC
LOX IMVI melanoma = test system: LOX IMVI melanoma
DU-145 prostate = test system: DU-145 prostate
HOP-62 NSCLC = test system: HOP-62 NSCLC
UACC-62 melanoma = test system: UACC-62 melanoma
HCT-15 colon = test system: HCT-15 colon
BT-549 breast = test system: BT-549 breast
ACHN renal = test system: ACHN renal
HL-60(TB) leukemia = test system: HL-60(TB) leukemia
MOLT-4 leukemia = test system: MOLT-4 leukemia
HCC-2998 colon = test system: HCC-2998 colon
CCRF-CEM leukemia = test system: CCRF-CEM leukemia
SW-620 colon = test system: SW-620 colon
OVCAR-3 ovarian = test system: OVCAR-3 ovarian
HCT-116 colon = test system: HCT-116 colon
SK-MEL-5 melanoma = test system: SK-MEL-5 melanoma
U251 CNS = test system: U251 CNS

SMILES: COc1cc(-c2nn(-c3ccc(NC(=O)NCCCNC(=O)c4ccccc4)cc3)cc2-c2ccncc2)ccc1Cl
- GI50 (MDA-MB-231 breast): 1.14 µM
- TGI (MDA-MB-231 breast): > 100 µM
- GI50 (SK-MEL-28 melanoma): 1.34 µM
- TGI (SK-MEL-28 melanoma): > 100 µM
- GI50 (SF-539 CNS): 0.266 µM
- TGI (SF-539 CNS): 0.843 µM
- GI50 (SNB-19 CNS): 0.846 µM
- TGI (SNB-19 CNS): > 100 µM
- GI50 (A498 renal): 0.467 µM
- TGI (A498 renal): 5.15 µM
- GI50 (SN12C renal): 0.718 µM
- TGI (SN12C renal): > 100 µM
- GI50 (786-0 renal): 0.493 µM
- TGI (786-0 renal): 2.86 µM
- GI50 (OVCAR-4 ovarian): 1 µM
- TGI (OVCAR-4 ovarian): > 100 µM
- GI50 (MCF7 breast): 0.338 µM
- TGI (MCF7 breast): > 100 µM
- GI50 (KM12 colon): 0.39 µM
- TGI (KM12 colon): 2 µM
- GI50 (OVCAR-8 ovarian): 0.635 µM
- TGI (OVCAR-8 ovarian): 12.7 µM
- GI50 (NCI-H226 lung): 1.47 µM
- TGI (NCI-H226 lung): > 100 µM
- GI50 (NCI-H23 lung): 0.665 µM
- TGI (NCI-H23 lung): > 100 µM
- GI50 (NCI-H460 lung): 0.404 µM
- TGI (NCI-H460 lung): 9.59 µM
- GI50 (SK-OV-3 ovarian): 0.752 µM
- TGI (SK-OV-3 ovarian): > 100 µM
- GI50 (IGROV1 ovarian): 0.843 µM
- TGI (IGROV1 ovarian): > 100 µM
- GI50 (NCI/ADR-RES ovarian): 3.78 µM
- TGI (NCI/ADR-RES ovarian): > 100 µM
- GI50 (SK-MEL-2 melanoma): 0.637 µM
- TGI (SK-MEL-2 melanoma): 5.22 µM
- GI50 (HT29 colon): 0.378 µM
- TGI (HT29 colon): 2.16 µM
- GI50 (EKVX NSCLC): 1.29 µM
- TGI (EKVX NSCLC): > 100 µM
- GI50 (M14 melanoma): 0.311 µM
- TGI (M14 melanoma): 1.84 µM
- GI50 (UO-31 renal): 1.56 µM
- TGI (UO-31 renal): 11.3 µM
- GI50 (TK-10 renal): 2.3 µM
- TGI (TK-10 renal): 8.01 µM
- GI50 (RXF 393 renal): 0.293 µM
- TGI (RXF 393 renal): 0.917 µM
- GI50 (UACC-257 melanoma): 2.37 µM
- TGI (UACC-257 melanoma): 23.7 µM
- GI50 (OVCAR-5 ovarian): 1.1 µM
- TGI (OVCAR-5 ovarian): > 100 µM
- GI50 (SNB-75 CNS): 1.12 µM
- TGI (SNB-75 CNS): > 100 µM
- GI50 (NCI-H522 lung): 0.231 µM
- TGI (NCI-H522 lung): 3.1 µM
- GI50 (T-47D breast): 0.611 µM
- TGI (T-47D breast): 14 µM
- GI50 (HS 578T breast): 0.428 µM
- TGI (HS 578T breast): > 100 µM
- GI50 (PC-3 prostate): 0.436 µM
- TGI (PC-3 prostate): > 100 µM
- GI50 (MALME-3M melanoma): 0.457 µM
- TGI (MALME-3M melanoma): 2.88 µM
- GI50 (HOP-92 NSCLC): 1.26 µM
- TGI (HOP-92 NSCLC): 8.1 µM
- GI50 (A549 NSCLC): 3.23 µM
- TGI (A549 NSCLC): 77.6 µM
- GI50 (LOX IMVI melanoma): 0.597 µM
- TGI (LOX IMVI melanoma): 8.07 µM
- GI50 (DU-145 prostate): 0.385 µM
- TGI (DU-145 prostate): > 100 µM
- GI50 (HOP-62 NSCLC): 0.46 µM
- TGI (HOP-62 NSCLC): > 100 µM
- GI50 (UACC-62 melanoma): 0.543 µM
- TGI (UACC-62 melanoma): 3.48 µM
- GI50 (HCT-15 colon): 1.94 µM
- TGI (HCT-15 colon): > 100 µM
- GI50 (BT-549 breast): 0.887 µM
- TGI (BT-549 breast): 5.33 µM
- GI50 (ACHN renal): 1.64 µM
- TGI (ACHN renal): 5.3 µM
- GI50 (HL-60(TB) leukemia): 0.358 µM
- TGI (HL-60(TB) leukemia): 1.2 µM
- GI50 (MOLT-4 leukemia): 0.905 µM
- TGI (MOLT-4 leukemia): > 100 µM
- GI50 (HCC-2998 colon): 1.21 µM
- TGI (HCC-2998 colon): 8.81 µM
- GI50 (CCRF-CEM leukemia): 0.385 µM
- TGI (CCRF-CEM leukemia): > 100 µM
- GI50 (SW-620 colon): 0.455 µM
- TGI (SW-620 colon): > 100 µM
- GI50 (OVCAR-3 ovarian): 0.252 µM
- TGI (OVCAR-3 ovarian): 0.647 µM
- GI50 (HCT-116 colon): 0.361 µM
- TGI (HCT-116 colon): 5.51 µM
- GI50 (SK-MEL-5 melanoma): 0.362 µM
- TGI (SK-MEL-5 melanoma): 1.43 µM
- GI50 (U251 CNS): 0.561 µM
- TGI (U251 CNS): 21.9 µM
